US8889662B2, “Method to alter sex ratios in avian offspring” (University of Georgia Research Foundation, Inc., priority 2009, dated 2014)

Tests used:
[1] = Example 1: plasma CORT radioimmunoassay after injection, zebra finches; format: in vivo, zebra finch (Taeniopygia guttata); details: female zebra finches
Experimental: This experiment was conducted to determine whether a single injection of CORT at the critical time of sex chromosome segregation is sufficient to skew offspring sex ratios towards females. Female zebra finches were monitored for signs of nest-building and egg-laying. Approximately 19 h following the appearance of the first egg (1 h before sex chromosome segregation), females received one of two treatments: (1) a high dose of CORT (20 ug in 50 ul peanut oil), or (2) a control treatment (50 ul peanut oil). Because oviposition and ovulation are nearly concurrent, ovulation of the second egg took place when the first egg was laid. Thus, the egg that would be affected by our treatment was the third egg in the sequence. Eggs were labeled as they were laid and were collected after 6 d of incubation for molecular sexing analysis as described above. The percentage of females producing male offspring in each group were calculated and compared using chi square analyses. Blood samples were taken from a subset of females 1 h and 2.5 h post injection to verify that the CORT injection did, in fact, elevate circulating maternal CORT concentrations. CORT was quantified using a standard radioimmunoassay and CORT concentrations were log transformed and analyzed using an analysis of variance (ANOVA).

[2] = Example 1: plasma CORT radioimmunoassay after injection, chickens; format: in vivo, chicken; details: hens
Experimental: Approximately 19 h following the appearance of a mid-sequence egg, females received one of three treatments: (1) a high dose of CORT (2 mg in 0.5 ml peanut oil), (2) a control treatment (0.5 ml peanut oil), or (3) no injection treatment. The egg corresponding to the next ovulation event was labeled, collected, and incubated at 37° C. for a period of 7 days to allow for embryonic development. Embryos were separated and sexed using PCR based techniques as described above. The percentage of females producing male offspring in each group were calculated and compared using chi square analyses. Also, as described above, blood samples were taken from a subset of females one hour and four hours after injection to verify that the CORT treatment did, in fact, elevate maternal CORT concentrations at the time of meiotic segregation. CORT was quantified using a standard radioimmunoassay and CORT concentrations were log transformed and analyzed using an analysis of variance (ANOVA).

[3] = test system: zebra finch (Taeniopygia guttata); experiment: Example 2: disruption of ovulation, oviposition and embryo development after injection, zebra finches; format: in vivo; details: 20 ug injection, relative to control and uninjected groups
Experimental: Zebra finch (Taeniopygia guttata) pairs obtained from a breeding colony maintained at The University of Georgia were housed in individual cages and provided feed and water ad libidumn. Birds were kept under a 14 hour (h) light (L):10 h dark (D) light schedule. Egg-laying was monitored daily and eggs marked to record sequence order. Females were injected intraperitoneally after the first or second egg of the clutch was laid with one of three treatments: 20 μg of CORT dissolved in 50 μl peanut oil and 10% ethanol (CORT), 20 μg of progesterone dissolved in […] and 10% ethanol (P), or 50 μl of control peanut oil (C). A fourth set of females received no injection treatment (UN). […] The follicle ovulating 5 hours after injection, was laid approximately 36 hours after injection (FIG. 3). Ovulating follicles exposed to treatments were laid as the 3rd or 4th egg in the sequence (3rd egg if treatment was administered on the day the 1st egg was laid and the 4th egg in the sequence if treatment was administered on the day the 2nd egg was laid). Eggs were allowed to incubate in the nest for 8-12 days prior to collection to allow sufficient embryonic development for DNA extraction and molecular sexing analyses. Occasionally these treatments disrupted the oviposition immediately following the injection. Females that delayed oviposition after treatment were excluded from analysis because it was not possible to determine whether the egg collected the following day was from the ovulation event that occurred immediately following injection or from a delayed oviposition of the follicle ovulated the day prior to injection. Females that delayed oviposition were allowed to complete the clutch after which the treatment was repeated during the next clutch. […] Only 1/10 females treated with progesterone laid successfully. For this reason, progesterone treatments were eliminated from further analyses.

[4] = Example 3: plasma corticosterone radioimmunoassay after injection, laying hens; format: in vivo, chicken; details: 1.5 mg
Experimental: Radioimmunoassays. Blood samples were collected from a separate set of hens to verify that CORT treatment elevated plasma corticosterone during the completion of meiotic segregation. Relative to the injections described above (5 h prior to ovulation), blood samples were collected from half of the CORT, CONT, and UN-treated hens at 1 h and the other half at 4 h (FIG. 6). Blood samples were collected from the brachial vein within 3 min of initial handling to avoid variation due to handling stress (Romero and Reed, 2005, Comp Biochem Physiol A; 140:73-79). Extraction and radioimmunoassay of plasma corticosterone were completed as described by Mendonça et al. (Mendonça et al., 1996, Horm Behav; 30:153-161). Twenty-four blood samples were analyzed from UN-treated hens (12 from each time period), 12 from CONT-treated hens (5 and 7 at 1 h and 4 h, respectively), and 12 from CORT-treated hens (6 from each time period).
Statistical Analysis. […] All hormone data were non-normally distributed and were log-transformed for statistical analysis. Plasma corticosterone concentrations were analyzed among treatment groups and time points using an ANOVA and differences among individual treatment groups were analyzed using Fisher's PLSD. Statistical analyses were carried out using Statview software (SAS Institute, Cary, N.C. USA).

[5] = test system: Hyline W-36 and Brown layer hens; experiment: Example 3: ovulation and oviposition rates after injection, laying hens; format: in vivo, chicken; details: 1.5 mg subcutaneously
Experimental: Injection treatments were administered to hens subcutaneously in the back of the neck five hours prior to the predicted time of ovulation with one of the following treatments: 0.5 ml of control peanut oil (CONT) or 1.5 mg corticosterone dissolved in 0.5 ml of peanut oil (CORT). Ovulated follicles took 24 h to pass through the remainder of the reproductive tract and were collected at oviposition (FIG. 6). Eggs were also collected on the day prior to injections and were considered the unmanipulated group (UN). […] Eggs were incubated for 10 days at 37.5° C. and 58% relative humidity in a Natureform incubator.

laying hens = experiment: Preliminary studies with silastic CORT implants: CORT concentrations and laying patterns; format: in vivo, chicken
Experimental: Additionally, concentrations of CORT and three other hormonal factors known to interact with CORT and ovarian follicular development—testosterone, progesterone, and leptin—will be measured in blood samples taken 4 h after ovulation as well as 4 and 6 h prior to ovulation in females from both treatment groups on days 3, 6, and 12 (to correspond with ovulation of collected eggs above). CORT concentrations will be measured in the yolk of each collected egg as well. […] Additionally, laying patterns were monitored for 2 weeks following implantation and 100% of birds implanted with CORT implants continued to lay at a similar frequency compared to before implantation, illustrating that we will be able to collect eggs from birds following this chronic implant treatment.

[6] = Plasma corticosterone in hens after CORT injections (FIG. 9); format: in vivo, chicken; details: 0.5 mg CORT in peanut oil (physiologically high dose)
Experimental: FIG. 9. Plasma corticosterone concentrations in hens after injections of 1.5 mg CORT, 0.5 mg CORT, oil control, and uninjected.
To test for a dose-dependent effect of CORT on sex ratios, female leghorns will be housed in layer cages, provided access to food and water ad libitum and will be randomly divided into one of seven treatment groups (n=72 each). […] To test whether CORT is a mediator in the sex determination process, one group from each of these treatment sets will also receive a dose of RU-486 (0.5 mg dissolved in 500 ul dH20), a glucocorticoid receptor blocker, administered 15 min prior to the injection treatment itself. […] As a result, treatment with RU-486 should not interrupt normal laying cycles. One final group will receive no injection treatment.

Structure (SMILES): C[C@]12C[C@H](O)[C@H]3[C@@H](CCC4=CC(=O)CC[C@@]43C)[C@@H]1CC[C@@H]2C(=O)CO [corticosterone]
- circulating CORT concentrations compared to controls ([1]; 20 ug CORT in 50 ul peanut oil, within 1 h of injection, p<0.0001): significantly increased circulating CORT concentrations
- circulating CORT concentrations compared to controls ([1]; 20 ug CORT, 2.5 h post-injection, p=0.08): remained higher in the CORT treated females 2.5 h post-injection, but not significantly so
- circulating CORT concentrations compared to controls ([2]; 2 mg CORT in 0.5 ml peanut oil, within one hour of injection, p<0.0001): significantly increased circulating CORT concentrations
- circulating CORT concentrations compared to controls ([2]; 2 mg CORT, four hours post-injection): This difference disappeared
- effect on oviposition, ovulation or visible development ([3]; listed as CORT): not more likely to occur
- effect on oviposition, ovulation or visible development ([3]; listed as Corticosterone): did not adversely affect oviposition or ovulation
- plasma corticosterone levels compared to CONT and UN treated hens ([4]; 1 h after injection, p<0.0001 in both cases): significantly raised corticosterone levels
- plasma corticosterone concentrations ([4]; four hours post-injection, CORT-UN p<0.01, CORT-CONT p=0.07): only significantly elevated in CORT-treated hens
- effect on ovulation or oviposition rates [5]: Neither the control nor the corticosterone treatment had an effect on ovulation or oviposition rates
- implanted birds that continued to lay at a similar frequency (laying hens; silastic CORT implants, laying monitored for 2 weeks after implantation): 100%
- CORT concentrations after silastic CORT implants (laying hens; within 2 d of implantation, persisted 1 week after implantation): significantly elevated CORT concentrations
- CORT concentrations reached [6]: below 40 ng/ml
